Results: article PMC6731595, “The anti-parasitic agent suramin and several of its analogues are inhibitors of the DNA binding protein Mcm10” (Open Biology, 2019)
“Also recorded” adds a separate entry of the source. Where a name gives a salt, the structure may show the parent alone. Read-outs that look alike come from different tables or passages of the source.

What was measured:
[1] = biological target: T1, human Mcm10 internal domain (hMcm10-ID) (Homo sapiens, UniProt Q7L590); test: Fluorescence polarization competition assay, displacement of 5′-6FAM 10-mer ssDNA probe from hMcm10-ID; assay type: binding; conditions: mean ± s.e.m., n ≥ 3; hMcm10-ID 1 μM, probe 12.5 nM
T1 construct: hMcm10-ID (residues 237 to 436) were expressed in E. coli strain BL21(DE3); 6xHis (HRV 3C site) (N, cleaved yes); made in house; host or cells: E. coli BL21(DE3)
T1 sequence (Q7L590 237-436): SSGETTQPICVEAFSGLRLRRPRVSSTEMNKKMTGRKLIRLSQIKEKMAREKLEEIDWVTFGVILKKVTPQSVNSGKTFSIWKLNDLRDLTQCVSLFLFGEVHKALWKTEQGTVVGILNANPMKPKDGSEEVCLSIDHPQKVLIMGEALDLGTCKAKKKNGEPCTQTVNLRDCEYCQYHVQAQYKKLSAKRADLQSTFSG
Experimental: A fluorescence polarization (FP) HTS assay was established to detect inhibitors of the binding of the 5′-6FAM 10-mer oligo probe to Mcm10. Test compounds dissolved in DMSO were added to 384-well plates (Corning 4514) using an Echo 550 acoustic dispenser (final DMSO 0.1%) to achieve a final single point screening concentration of 10 µM. Then 10 µl of 2× Xenopus internal domain Mcm10 (xMcm10-ID, final concentration 2 µM) in binding buffer (20 mM Tris HCl, 100 mM NaCl, 5% glycerol, and 0.01% triton, pH 7.5) was added using the Combi nL Multidrop dispenser. Finally, 10 µl of 2× 5′-6FAM DNA (final 12.5 nM) in binding buffer was added using the Multidrop. DMSO (0.1%, high signal) and probe only (low signal) controls were included on every plate. Plates were mixed for 2 min, incubated for 60 min at RT in the dark, and read on a CLARIOstar multimode plate reader (excitation: 482-16, emission: 530-40, dichroic filter: LP504).
The LOPAC pilot screen identified the sulfhydryl reagent 4-chloromercuribenzoic acid as an inhibitor in the fluorescence polarization (FP) assay. As there was no known Mcm10 inhibitor, 4-chloromercuribenzoic acid (30 μM) was used as a positive control on initial screening plates. Following the discovery of suramin as a Mcm10 inhibitor, suramin (7 μM) was used as a positive control on subsequent screening plates. To confirm activity, screening hits were tested in dose response experiments (8 concentrations in duplicate) using xMcm10-ID. Similar dose response experiments were conducted with suramin and its analogs to confirm activity for hMcm10-ID (1 μM) and xMcm10-FL (2 μM) and to determine selectivity relative to RPA70AB (0.4 μM). Saturation experiments for each protein were conducted using increasing concentrations of protein with a fixed probe concentration (12.5 nM). FP was measured in mP units, and ∆mP values for each well were calculated as the difference between the measured mP and the average of the “probe only” controls. […] The parallel and perpendicular mP values were also used to calculate total fluorescence intensity (TFI) determined by the sum of parallel mP + (2 x perpendicular mP). TFI was used to detect fluorescence interference by compounds [1]. […] IC50 values were calculated using the four parameter logistic equation in Prism 6.0 (GraphPad). Ki values were obtained using an online Ki calculator according to the equations of Nikolovska-Coleska (http://sw16.im.med.umich.edu/soft-ware/calc_ki/). KD values were calculated using the one site or two site binding equations in Prism 6.0 (GraphPad).

[2] = biological target: T2, hMcm10-ID (Homo sapiens, UniProt Q7L590); test: ABA injection SPR competition experiment with NF023 on hMcm10-ID; assay type: binding; conditions: competitor at 1× KD with NF023 at 10× KD (50 μM)
T2 construct: hMcm10-ID (residues 237 to 436) were expressed in E. coli strain BL21(DE3); 6xHis (HRV 3C site) (N, cleaved yes); made in house; host or cells: E. coli BL21(DE3)
T2 sequence (Q7L590 237-436): T1 sequence (Q7L590 237-436)
Experimental: To explore this possibility, competition-based SPR experiments were conducted using the ABA injection method to determine if the slow binder iso-PPADS competes with the fast kinetic compound NF023 (figure 4). ABA injection allows solution A (NF023 at 10× its KD) to be injected over the surface with solution B (NF023 + competitor at 1× KD) in the same cycle. Competitive binding should result in little or no change in binding response between the A and B injections, whereas non-competitive binders are expected to produce an additive binding response.
For ABA competition SPR experiments, the CM5 chip surface was prepared as described in Materials and Methods. Solution A was prepared with 50 μM NF023 in running buffer while solution B was prepared with the competitor near its KD value (NF023 = 5 μM, suramin = 0.5 μM, and iso-PPADS = 30 μM) ± 50 μM NF023 in running buffer. Data were collected at a rate of 40 Hz and analyzed with the Biacore S200 Evaluation Software. For these experiments, hMcm10-ID was immobilized to the chip surface and NF023 at a concentration 10-fold higher than its KD. A running buffer control was performed to establish the baseline of the experiment. When buffer and NF023 were injected as solution B, there was a small decrease in RU due to slight buffer mismatch effects (Figure 5a). […] NF023, suramin, and iso-PPADS were chosen as competitors to be tested at concentrations equal to their respective KD values as determined by SPR.

[3] = biological target: T2, hMcm10-ID; test: Surface plasmon resonance binding kinetics on immobilized hMcm10-ID (Biacore S200); conditions: for surface plasmon resonance hMcm10-ID kd / kon: 25°C; for kon: read-out: surface plasmon resonance hMcm10-ID ka; for SPR binding kinetics (description of sensorgrams): immobilized hMcm10-ID
Experimental: SPR experiments were performed using a Biacore S200 (GE Healthcare) equipped with a research-grade CM5 sensor chip. hMcm10-ID, at a concentration of 15 µg ml^−1 in 10 mM sodium acetate, pH 4.5, […], using an amine coupling kit (GE Healthcare) to either flow cell 2 or 4 following manufacturer directions. The reference flow cell (either flow cell 1 or 3) was left untreated. All compounds were dissolved in running buffer (10 mM PBS, 150 mM NaCl, 0.005% P20, pH 7.4) prior to injection over the chip surface at a flow rate of 30 µl min^−1 and at a temperature of 25°C. Zero concentration samples were injected for double referencing. Data were collected at a rate of 40 Hz and were fitted to a simple 1 : 1 interaction model (unless otherwise noted) using the global data analysis within the Biacore S200 evaluation software.

[4] = test system: HCT116 cells; test: CellTiter-Glo cell viability assay, HCT116; assay type: cell-based, human; conditions: for IC50: Homo sapiens, HCT-116, 96 h, 4 days, intracellular ATP, mean ± s.e.m., n = 3
Experimental: Cells were cultured at 37°C and 5% CO2. […] Cells were allowed to grow for 4 days in inhibitor containing medium and cell viability was measured with the CellTiter-Glo Luminescent Cell Viability Assay (Promega G7572) following the manufacturer's instructions. Viability of each drug treatment condition was normalized to the untreated control for each cell line and fitted to the sigmoidal dose–response variable slope four parameter equation in GraphPad Prism 6.0.

[5] = calculated from association and dissociation rate constants, 1:1 model, 6000–8000 RU, read-out: surface plasmon resonance hMcm10-ID kinetic KD

Structure (SMILES) | Ki [1] [µM] | competition with NF023 for binding to hMcm10-ID (ABA SPR) [2] | surface plasmon resonance hMcm10-ID kd ([3]; 1:1 model, 6000–8000 RU) [s^−1] | kon ([3]; 1:1 model, 6000–8000 RU) [M⁻¹ s⁻¹] | Kd [3, 5] [µM] | SPR binding kinetics (description of sensorgrams) [3] | higher cytotoxicity for HCT116 cancer cells in comparison to hTERT RPE-1 cells [4] | selectivity = hTERT RPE-1 IC50/HCT116 IC50 [4] | IC50 [4] [µM] | Kd ([3]; 3000 RU of hMcm10-ID immobilized, read-out: SPR kinetic KD at lower surface density) [µM]
O=C(Nc1cccc(C(=O)Nc2ccc(S(=O)(=O)O)c3cc(S(=O)(=O)O)cc(S(=O)(=O)O)c23)c1)Nc1cccc(C(=O)Nc2ccc(S(=O)(=O)O)c3cc(S(=O)(=O)O)cc(S(=O)(=O)O)c23)c1 [NF023] | 1.8 ± 0.2 | consistent with a competitive interaction | 1.6 ± 0.2 | 360000 ± 2e+09 | 4.7 ± 0.8 | rapid association and dissociation |  |  |  | 
Cc1nc(/N=N/c2ccc(S(=O)(=O)O)cc2S(=O)(=O)O)c(COP(=O)(O)O)c(C=O)c1O [PPADS, pyridoxalphosphate-6-azophenyl-2’, 4’-disulfonic acid tetrasodium salt] | 17 ± 1 |  | 0.0013 ± 0.0001 | 29 ± 8 | 57 ± 9 | slow association and dissociation kinetics; also recorded: slow on and off rates | little cell type specificity | 1.3 | 310 ± 20 | 
Cc1nc(/N=N/c2cc(S(=O)(=O)O)ccc2S(=O)(=O)O)c(COP(=O)(O)O)c(C=O)c1O [iso-PPADS, pyridoxalphosphate-6-azophenyl-2’, 5’-disulfonic acid tetrasodium salt] | 18 ± 2 | neither compound showed additive binding | 0.0015 ± 0.0001 | 47 ± 8 | 40 ± 9 | slow on- and off-rates | little cell type specificity | 1.5 | 370 ± 30 | 
Cc1ccc(C(=O)Nc2ccc(S(=O)(=O)O)c3cc(S(=O)(=O)O)cc(S(=O)(=O)O)c23)cc1NC(=O)c1cccc(NC(=O)Nc2cccc(C(=O)Nc3cc(C(=O)Nc4ccc(S(=O)(=O)O)c5cc(S(=O)(=O)O)cc(S(=O)(=O)O)c45)ccc3C)c2)c1 [suramin, suramin sodium salt] | 0.83 ± 0.07 | neither compound showed additive binding | 0.16 ± 0.03 | 290000 ± 7e+09 | 0.57 ± 0.06 | predominantly rapid kinetics | approximately 3.5 fold | 3.7 | 109 ± 10 | 0.65
O=C(Nc1cccc(C(=O)Nc2cc(C(=O)Nc3ccc(S(=O)(=O)O)c4cc(S(=O)(=O)O)cc(S(=O)(=O)O)c34)ccc2F)c1)Nc1cccc(C(=O)Nc2cc(C(=O)Nc3ccc(S(=O)(=O)O)c4cc(S(=O)(=O)O)cc(S(=O)(=O)O)c34)ccc2F)c1 [NF157] | 0.17 ± 0.02 |  | 0.0032 ± 0.0001 | 7400 ± 600000 | 0.46 ± 0.05 | predominantly rapid kinetics | approximately 3.5 fold | 3.2 | 38 ± 1 | 
